# Values of other authors, collected in patent US11452768B2, “Combination therapy with neoantigen vaccine” (The Broad Institute Inc., priority 2013, dated 2022).
# Key:
# ovarian carcinoma = settings: in combination with NY-ESO-1 peptide vaccine and Montanide
# [1] = test system: gene expression in whole blood; settings: one single s.c. administration, 8 volunteers vs 4 placebo
# [2] = test system: advanced hormone refractory prostate cancer; settings: personalized vaccination combined with a low dose of estramustine
# advanced melanoma = settings: nivolumab and ipilimumab combined, intravenous
molecule,measurement,setting,value
Polyinosinic-Polycytidylic Acid-poly-L-lysine Carboxymethylcellulose [poly-ICLC],Patients showing induction of CD4+ and CD8+ T cell and antibody responses to the peptide,ovarian carcinoma,> 90%
same,Differentially expressed genes versus placebo,[1],up to 212 genes
same,"Fever (common adverse event, primary dose-limiting factor)",high doses ≥6 mg/m2,above 40 °C
same,Tolerability across all studies and spectrum of diseases,low dose (1-2 mg total dose),well-tolerated
C[C@]12CC[C@@H]3c4ccc(OC(=O)N(CCCl)CCCl)cc4CC[C@H]3[C@@H]1CC[C@@H]2O [estramustine],Patients with a ≥50% decrease in serum prostate specific antigen (PSA),[2],54%
nivolumab: fully human IgG4 blocking monoclonal antibody against PD-1,Objective responses,tumor types; across tumor types,16-31%
same,Durability of most responses,tumor types; in vivo,> 1 year
same,Safety,tumor types; in vivo,safe
same,Maximum doses associated with an acceptable level of adverse events,advanced melanoma,1 mg per kilogram
ipilimumab: monoclonal antibody that binds and blocks CTLA-4,Maximum doses associated with an acceptable level of adverse events,advanced melanoma,3 mg per kilogram
